Data reported in publication PMC9705864, “SCO6992, a Protein with β-Glucuronidase Activity, Complements a Mutation at the absR Locus and Promotes Antibiotic Biosynthesis in Streptomyces coelicolor” (Journal of Microbiology and Biotechnology, 2021).

How the values were obtained:
[1] = biological target: T1, MBP-SCO6992 (rSCO6992; ORF-1; absR1) (Streptomyces coelicolor, UniProt Q7AKD9); experiment: native PAGE zymogram with Fast Garnet; type: biochemical; settings: 0.2 M sodium acetate pH 5.2
T1 construct: N-terminal MBP fusion (pMAL-c2x) kept, about 82 kDa; E. coli JM109
T1 sequence (Q7AKD9 1-359): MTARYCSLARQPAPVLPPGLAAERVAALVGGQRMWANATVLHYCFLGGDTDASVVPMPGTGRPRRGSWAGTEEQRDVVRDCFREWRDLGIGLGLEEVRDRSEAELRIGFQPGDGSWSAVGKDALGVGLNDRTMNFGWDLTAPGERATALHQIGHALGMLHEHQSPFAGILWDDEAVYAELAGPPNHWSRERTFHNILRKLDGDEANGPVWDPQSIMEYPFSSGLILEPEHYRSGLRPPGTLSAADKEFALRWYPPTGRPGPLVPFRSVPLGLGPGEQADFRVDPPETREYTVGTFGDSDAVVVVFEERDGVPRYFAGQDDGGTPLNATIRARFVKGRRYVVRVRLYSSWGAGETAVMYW

[2] = biological target: T1, MBP-SCO6992 (rSCO6992; ORF-1; absR1); experiment: p-nitrophenol release, absorbance at […] nm; type: biochemical; settings: 1.67 mM substrate, 83 mM acetate pH 4.5, 37°C, 1 h; without added Zn2+

For COc1ccccc1NC(=O)c1cc2cc(Br)ccc2cc1O[C@@H]1O[C@H](C(=O)O)[C@@H](O)[C@H](O)[C@H]1O [naphthol AS-BI-β-D-glucuronide], which “native PAGE zymogram with Fast Garnet” value [1] is on record?
Its value is “purified MBP-SCO6992 protein had β-glucuronidase activity on an artificial substrate such as AS-BI-β-D-glucuronide”.

For O=C(O)[C@H]1O[C@@H](Oc2ccc([N+](=O)[O-])cc2)[C@H](O)[C@@H](O)[C@@H]1O [p-nitrophenyl-β-D-glucuronide], which “p-nitrophenol release, absorbance at 415 nm” value [2] is on record?
Its value is “when measuring β-glucuronidase activity using p-nitrophenyl-β-D-glucuronide as substrate, a strong activity was detected”.
